The target in one assay is T1, HRas^(1-166) (Homo sapiens, UniProt P01112).
T1 construct: 6×His-tagged HRas WT 1-166; made in house
Kind of assay: In vitro pulldown binding assay with 6×His-tagged HRas 1-166 and fluorescein-tagged SOS peptides. The method, then: Recombinantly purified 6×His-tagged HRas WT 1-166 was incubated with Ni-NTA sepharose beads, generating recombinant Ras on solid support. FITC labeled HBS peptides were incubated in the presence of recombinant HRas-6×His/Ni-NTA Sepharose complex at 4° C. for 1 hour. Beads complexes were pelleted and washed 5× with protein buffer (20 mM Tris-HCl pH 7.6, 50 mM NaCl, 4 mM EDTA, 10 mM MgCl2), resuspended in reducing buffer (126 mM Tris-HCL pH 6.8, 20% glycerol, 4% SDS, 0.02% bromophenol blue, 2.5% β-mercaptoethanol), boiled for 10 minutes at 95° C., and subjected to SDS-PAGE with an acrylamide percentage of 20% to allow for sufficient resolution of the HBS helices. SDS-PAGE gels were imaged using an ImageQuant™ LAS 4000 biomolecular imager (GE Healthcare, Piscataway, N.J., USA). Quantification of fluorescence by FITC-HBS helices in gel was determined by manufacturer provided ImageQuant™ TL software. Raw values were normalized to total input and plotted on a semilog graph with GraphPad Prism version 6.00 for OSX (GraphPad Software, La Jolla Calif. USA, www.graphpad.com).
The binding affinity of the designed compounds for Ras was determined using in vitro pulldown assays with recombinantly purified 6×His-tagged HRas^(1-166) and fluorescein-tagged SOS peptides (FIGS. 8 and 9, and Table 2). […] Although, the exact binding mode of the peptides and the conformational state of Ras is not known, the enhanced affinity of the α3β-HBSSOS compound likely reflects a combination of both the higher conformational stability of the HBS α3β construct and the exact Ras conformation it can access. […] Because, the SOS analogs can bind nucleotide-free and bound Ras, we hypothesize that the compounds are accessing an intermediate switch conformation.

In assay [1] the target is Sos-mediated Ras nucleotide exchange (Homo sapiens, UniProt P01112). Put plainly: In vitro nucleotide exchange (mant-GDP, SOS-Cat). In kind it is biochemical. On the procedure:
Exchange assays were performed by incubating 1 μM of recombinant wild type Ras protein with 1 μM mant-GDP in exchange buffer (20 mM Tris-HCl pH 7.6, 50 mM NaCl, 4 mM EDTA) for 5 minutes on ice. The mixture was then supplemented with 10 mM MgCl2 and incubated for an additional 6 hours at 4° C. Exchange reaction was initiated by either the addition of 100 μM-unlabeled GDP, (negative control) or the addition of 100 μM-unlabeled GDP in the presence of 1 μM SOS-Cat. The levels of fluorescence anisotropy were measured on a Perkin Elmer fluorescence spectrometer (model LS50B) with an excitation wavelength of 370 nm and emission detection at 430 nm. To test the inhibitory properties of the HBSSOS helices, indicated peptides were added to the mant-loaded Ras at a concentration of 1 uM and allowed to stand for 10 minutes at 4° C. before the addition of SosCat. Dissociation rates (Koff values) were determined by fitting raw data to a first-order exponential decay function using GraphPad Prism version 6.00 for OSX (GraphPad Software, La Jolla Calif. USA, www.graphpad.com). Data was normalized to t=0, converted to a percentage, and plotted as a curve for ease of visualization.
We evaluated inhibition of nucleotide exchange under stringent conditions consisting of 1 μM each of Ras, SOS, and the inhibitor.

The next assay has as its target T2, oncogenic KRas (Homo sapiens, UniProt P01116, G12C).
T2 construct: levels of GTP-loaded endogenous HRas, KRas, and NRas proteins; endogenous in cells; host or cells: MIA PaCa-2
Kind of assay: RBD-pulldown of GTP-loaded Ras in MIA PaCa-2 cells. In kind it is cell-based. The following applies: 48 hours. The method, then: (§1) To determine the effect of α3β-HBSSOS on Sos-mediated Ras activation in cells we treated MIA PaCa-2 cells, which harbor oncogenic KRas, with α3β-HBSSOS, control peptides, or vehicle control for 48 hours. Utilizing the RBD-pulldown assay we determined the levels of GTP-loaded endogenous HRas, KRas, and NRas proteins. As expected, MIA PaCa-2 cells display GTP-loading of all isoforms at steady state when treated with the vehicle control (FIGS. 11A-B).

In a further assay the target is T3, wild type HRas (Homo sapiens, UniProt P01112).
T3 construct: levels of GTP-loaded endogenous HRas, KRas, and NRas proteins; endogenous in cells; host or cells: MIA PaCa-2
Put plainly: RBD-pulldown of GTP-loaded Ras in MIA PaCa-2 cells. In kind it is cell-based. The conditions noted are these: 48 hours. On the procedure: as §1

The target in the next assay is T4, wild type NRas (Homo sapiens, UniProt P01111).
T4 construct: levels of GTP-loaded endogenous HRas, KRas, and NRas proteins; endogenous in cells; host or cells: MIA PaCa-2
Put plainly: RBD-pulldown of GTP-loaded Ras in MIA PaCa-2 cells. In kind it is cell-based. The conditions noted are these: 48 hours. On the procedure: as §1

For assay [2], the system named is panel of six human cancer cell lines. Put plainly: Growth and viability of a panel of six human cancer cell lines. It is filed as cell-based. The following applies: for effect on cell growth relative to vehicle control: single administration of 5 μM, six days. The method, then:
(§2) Various indicated cell lines were plated at low density (˜500-1000 cells per well) in a 96-well format. 12 hours post-plating, media was supplemented with either PBS vehicle, or indicated dosage, and cells were allowed to grow for ˜5.5 days. Cells were subsequently fixed for 1 hour with a 3.7% formaldehyde solution in PBS, and stained with Syto-60 nucleic acid stain (MANUFACTURER) in solution (1:2000 Syto-60, 0.5% Triton X-100, 100 ug/mL RNAse-A, in PBS). Syto-60 stained cells were subjected to quantitative imaging in 96-well plates (Odyssey® Imager, LI-COR Biosciences; excitation: 652; emission: 678) with a 3.0 mm z-axis offset to the scan-head to get the cellular nuclei in the optimal focal plane for quantification. Absolute fluorescence intensity was normalized to the vehicle control for each respective cell line at each dose. Normalized values were visualized on a semilog plot, and data was subjected to non-linear sigmoidal dose-response to determine half-maximal effective concentration (EC50) using GraphPad Prism version 6.00 for OSX, (GraphPad Software, La Jolla Calif. USA, www.graphpad.com).
(§3) To investigate the functional consequence of inhibiting Ras activation in the context of oncogenic mutations, we examined the effect of α3β-HBSSOS on the growth and viability of cancer cells of different origins. We selected a panel of six human cancer cell lines derived from the pancreas, colon, and bladder, which harbor a variety of oncogenic proteins including mutant KRas (Table 3).
(§4) α3β-HBSSOS reduces cell viability in a dose dependent manner, with the effect spanning over four orders of magnitude. We divided the cell lines into two groups with respect to EC50 values (Table 3). […] We hypothesized that differential cellular uptake may account for the different potency of the peptides between the oncogenic and wild type RTK-Ras cell lines.

In a further assay the test system is BxPc3. It is filed as cell-based, human. The following applies: BxPc3, Ras WT; read-out: EC50 for cell viability. The method, then:
as §2, §3, §4

Another assay deals with CaCo2. It is filed as cell-based, human. The following applies: CaCo2, Ras WT; read-out: EC50 for cell viability. On the procedure:
as §2, §3, §4

The test system of the next assay is HCT116. In kind it is cell-based, human. The conditions noted are these: read-out: EC50 for cell viability. On the procedure: as §2, §3, §4
A further assay has as its system J82. In kind it is cell-based, human. The conditions noted are these: read-out: EC50 for cell viability. The method, then: as §2, §3, §4
The next assay deals with Mia PaCa2. It is filed as cell-based, human. The following applies: read-out: EC50 for cell viability. The method, then: as §2, §3, §4
The subject of the next assay is SW780. It is filed as cell-based, human. The following applies: SW780, Ras WT; read-out: EC50 for cell viability. On the procedure:
as §2, §3, §4

For assay [3], the system named is mutant Ras and wild type Ras cancer cell lines. Kind of assay: Analysis of DNA content by FACS (cell cycle). It is filed as cell-based. The method, then:
DNA content was determined by flow cytometric analysis using TO-PRO®-3 Iodide (Life Technologies Corp., Grand Island, N.Y.) to stain nucleic acids. Cell lines were plated at ˜40-50% confluency in multi-well format and 12-hours post plating were treated with either HBS helices or vehicle control at the indicated dose. After the indicated incubation period the culture media was collected, and the cells were trypsinized, pooled with the media, pelleted in a clinical centrifuge, resuspended in a small volume of PBS, and added dropwise to 100% ice-cold ethanol while vortexing at low speed, resulting in a final concentration of ˜70% ethanol. Cells were fixed in this solution on ice for 24 hours. Subsequently cells were pelleted at 4° C., washed once with a solution of 1% BSA in PBS, and resuspended in a solution of 1% BSA, 0.5% Triton X-100, 1:5000 TO-PRO®-3 Iodide (Life Technologies Corp., Grand Island, N.Y.). Results and Discussion of Examples 1-9
We next sought to gain mechanistic insight into the attenuated growth and viability of cancer cells that is observed upon inhibition of Sos-mediated Ras activation with α3β-HBSSOS. Because of the link between Ras signaling and cell cycle progression, we reasoned that DNA content analysis would elucidate Ras-mediated effects on cell growth. […]
(In flow cytometry, cells or beads pass a laser one at a time.)

The subject of another assay is mutant Ras cells. Kind of assay: Phosphorylated H2AX and cleaved caspace-3 immunofluorescence. The conditions noted are these: only mutant Ras cells. It is filed as cell-based. From the text: We next sought to gain mechanistic insight into the attenuated growth and viability of cancer cells that is observed upon inhibition of Sos-mediated Ras activation with α3β-HBSSOS. Because of the link between Ras signaling and cell cycle progression, we reasoned that DNA content analysis would elucidate Ras-mediated effects on cell growth. […] This cellular response to pharmacological inhibition of Ras activation by α3β-HBSSOS phenocopies the effects of the post-transcriptional silencing of wild type Ras and Sos in oncogenic Ras-driven cancer. These corroborant genetic and pharmacological cell viability defects support the therapeutic strategy of targeting wild type Ras activation.

Structures are written as SMILES. “Also recorded” adds a separate entry of the source. Where two headings read alike, the source gives them in different places. Non-standard residues stand in square brackets, D forms with d. Residues, ends and D or L forms follow the SMILES beside them. β3hI = CC[C@H](C)[C@H](N)CC(=O)O; β3hE = N[C@@H](CCC(=O)O)CC(=O)O; β3hA = C[C@H](N)CC(=O)O

T4 sequence (P01111 whole entry): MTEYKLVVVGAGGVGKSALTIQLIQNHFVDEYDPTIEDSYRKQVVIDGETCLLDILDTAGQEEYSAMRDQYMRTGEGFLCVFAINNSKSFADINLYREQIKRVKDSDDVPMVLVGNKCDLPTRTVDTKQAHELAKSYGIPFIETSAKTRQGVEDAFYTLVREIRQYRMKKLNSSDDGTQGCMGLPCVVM
T2 sequence (P01116 whole entry G12C): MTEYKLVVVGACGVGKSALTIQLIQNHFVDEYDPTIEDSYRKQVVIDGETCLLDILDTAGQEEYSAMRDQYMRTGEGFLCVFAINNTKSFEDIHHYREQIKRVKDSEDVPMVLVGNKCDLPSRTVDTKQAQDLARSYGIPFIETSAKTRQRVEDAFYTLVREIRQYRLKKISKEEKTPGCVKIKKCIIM

For orientation: Kd means the constant that tells how readily two partners part at equilibrium. In general, EC50 refers to the concentration needed to bring the measured effect to its halfway point. In the case of `CC[C@H](C)[C@@H](CC(=O)N[C@@H](Cc1ccc(O)cc1)C(=O)N[C@@H](CCCNC(=N)N)C(=O)N[C@@H](CC(C)C)C(=O)N[C@@H](CCC(=O)O)CC(=O)N[C@@H](CC(C)C)C(=O)N[C@@H](CC(C)C)C(=O)N[C@@H](CCCCN)C(=O)N[C@@H](C)CC(=O)N[C@@H](CCC(=O)O)C(=O)N[C@@H](CCC(=O)O)C(=O)N[C@@H](C)C(=O)N[C@@H](CC(N)=O)C(N)=O)NC(=O)CN1CC=CCCCC(=O)N[C@@H](Cc2ccccc2)C(=O)N[C@@H](CCC(=O)O)C1=O` [α3β-HBSSOS, ZFEG*iYRLeLLKaEEAN-NH2], on HRas^(1-166), the “fold greater affinity than the all-α analog α-HBSSOS” value is given as 50 fold. Further, the equilibrium dissociation constant (Kd) at HRas^(1-166) (fluorescein-tagged peptides, 4° C., 1 hour) was 220 ± 56 nM. The “inhibition of Sos-mediated Ras nucleotide exchange” value in [1] (1 μM each of Ras, SOS, and the inhibitor) was “potent inhibitory effect”. Also, the “concentration giving inhibitory effect comparable to previously reported α-HBSSOS” value in assay [1] (relative to α-HBSSOS concentration) was “one-twentieth”. Also, the “GTP-loading of oncogenic KRas” value on oncogenic KRas was “diminished; also recorded: significantly reduced”. Moreover, the “GTP-loading of wild type HRas” value at wild type HRas was “completely abrogated”. Further, the “GTP-loading of wild type NRas” value on wild type NRas is “completely abrogated”. Besides, the “effect on viability of the wild-type Ras group” value in assay [2] (CaCo2, SW780, and BxPc3) was “limited effects on viability”. Besides, the “effect on cell growth relative to vehicle control” value in assay [2] was “inhibited the growth of all cell lines to varying degrees”. Also, the EC50 stood at 1180 nM in the assay on BxPc3; 2670 nM in the assay on CaCo2; 243 nM with HCT116 (HCT116, Kras G13C); 243 ± 44 nM in the assay on HCT116 (HCT-116); 65.2 nM in the assay with J82 (J82, Ras WT, FGFR3 CA); 65.2 ± 43 nM in the assay with J82 (J82). Further, the EC50 in the assay with Mia PaCa2 (MIA PaCa-2) was found to be 144 ± 57 nM; with Mia PaCa2 (Mia PaCa2, Kras G12D), 144 nM; in the assay with SW780 it was 1450 nM. Besides, the “cells with 4N DNA content” value in assay [3] (mutant Ras cells (MIA PaCa-2, HCT-116, Umuc3, T24), 48 hours) is “accumulation”. Also, the “accumulation in the G2/M phase of the cell cycle” value in assay [3] (wild type Ras cell lines (SW780, BxPc3, J82)) is reported as “do not accumulate”. In addition, the “DNA strand breaks and apoptosis” value with mutant Ras cells is “increased levels”.
On to `CC[C@H](C)[C@@H](CC(=O)N[C@@H](Cc1ccc(O)cc1)C(=O)N[C@@H](CCCNC(=N)N)C(=O)N[C@@H](CC(C)C)C(=O)N[C@@H](CCC(=O)O)CC(=O)N[C@@H](CC(C)C)C(=O)N[C@@H](CC(C)C)C(=O)N[C@@H](CCCCN)C(=O)N[C@@H](C)CC(=O)N[C@@H](CCC(=O)O)C(=O)N[C@@H](CCC(=O)O)C(=O)N[C@@H](C)C(=O)N[C@@H](CC(N)=O)C(N)=O)NC(=O)CNC(=O)[C@H](CCC(=O)O)NC(=O)[C@H](Cc1ccccc1)NC(C)=O` [α3β-UNCSOS, Ac-FEGiYRLeLLKaEEAN-NH2] (Ac-FEG[β3hI]YRL[β3hE]LLK[β3hA]EEAN-NH2), for which the “fold weaker affinity than constrained counterpart α3β-HBSSOS” value at HRas^(1-166) is given as around 136 fold. In addition, the “GTP-loading of wild type HRas” value at wild type HRas is given as “not”. In addition, on wild type NRas, the “GTP-loading of wild type NRas” value was “not”. Also, the “effect on cell growth relative to vehicle control” value in [2] is listed as “no effect on cell growth”.
